Results taken from US20260297109A1, “COMPOUNDS AS SUMO ACTIVATING ENZYME INHIBITORS” (WIGEN BIOMEDICINE TECHNOLOGY (SHANGHAI) CO., LTD., priority 2022, published 2026).
Where two headings read alike, the source gives them in different places.

How the values were obtained:
SAE = target: T1, SAE (Homo sapiens, UniProt Q9UBT2); assay: SUMO IF: in vitro inhibitory activity assay against SAE in HCT116 cells (SUMO-2/3 immunofluorescence); format: cell-based; details: 6 h at 37° C.
T1 construct: endogenous in cells; host or cells: HCT116
T1 sequence (Q9UBT2 1-640): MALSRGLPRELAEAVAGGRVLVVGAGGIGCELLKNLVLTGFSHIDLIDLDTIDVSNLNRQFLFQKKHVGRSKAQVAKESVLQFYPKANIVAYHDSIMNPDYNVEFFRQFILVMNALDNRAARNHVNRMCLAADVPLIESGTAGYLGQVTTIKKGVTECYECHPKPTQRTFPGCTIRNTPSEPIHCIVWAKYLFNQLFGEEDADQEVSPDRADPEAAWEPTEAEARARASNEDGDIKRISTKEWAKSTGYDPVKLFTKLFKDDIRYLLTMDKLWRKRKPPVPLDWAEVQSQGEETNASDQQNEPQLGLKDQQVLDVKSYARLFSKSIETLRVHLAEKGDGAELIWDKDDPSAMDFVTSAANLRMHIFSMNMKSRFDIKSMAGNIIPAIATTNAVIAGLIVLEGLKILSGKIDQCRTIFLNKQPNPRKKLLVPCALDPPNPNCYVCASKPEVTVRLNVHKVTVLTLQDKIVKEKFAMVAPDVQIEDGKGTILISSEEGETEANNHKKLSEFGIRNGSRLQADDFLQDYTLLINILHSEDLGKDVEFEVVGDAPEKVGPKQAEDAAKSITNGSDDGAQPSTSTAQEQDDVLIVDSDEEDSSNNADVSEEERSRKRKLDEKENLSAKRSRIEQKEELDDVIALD
T1 sequence (Q9UBE0 1-346): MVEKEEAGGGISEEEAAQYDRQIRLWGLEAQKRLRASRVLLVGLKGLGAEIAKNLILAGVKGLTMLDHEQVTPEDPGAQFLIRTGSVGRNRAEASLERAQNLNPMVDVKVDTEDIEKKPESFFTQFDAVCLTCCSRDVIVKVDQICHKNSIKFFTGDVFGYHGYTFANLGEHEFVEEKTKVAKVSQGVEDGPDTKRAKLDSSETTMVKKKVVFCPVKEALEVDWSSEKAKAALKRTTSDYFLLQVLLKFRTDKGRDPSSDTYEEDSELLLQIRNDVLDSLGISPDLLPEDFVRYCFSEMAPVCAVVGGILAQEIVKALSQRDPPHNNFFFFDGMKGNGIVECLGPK
In short: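 HCT116 cells were treated with compound for 6 h at 37 °C, then PFA-fixed, Triton-permeabilised and BSA-blocked. They were stained overnight at 4 °C with anti-SUMO-2/3 (18H8) rabbit mAb (1:400), then with FITC anti-rabbit IgG (1:300). Fluorescence versus DMSO gave inhibition rate and IC50.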

[1] = In vivo pharmacokinetic experiment in CD-1 female mice, intravenous; details: CD-1 mice; for Plasma AUClast: plasma (Table 4); for C0 / clearance / half-life / AUC(0-t) / Cmax / Vd / blood plasma ratio: mouse; for Vd: read-out: Vdss; for blood plasma ratio: in vivo, iv
Protocol: Biological Example 3. In Vivo Pharmacokinetic Experiment of Compound of the Present Disclosure
[…] The mice were fasted for at least 12 h before the administration and given food after the administration, and they were given ad libitum access to water during the experiment. On the day of the experiment, animals in the intravenous group were administered the corresponding compound by single injection via the tail vein at an administration volume of 0.2 mL/animal. The sample collection time was 0.083 h, 0.167 h, 0.5 h, 1 h, 2 h, 4 h, 8 h, and 24 h. About 150 μL of whole blood was collected through the submaxillary venous plexus at each time point (30 μL of whole blood was diluted with ultrapure water at a ratio of 1:3, and 120 μL of whole blood was centrifuged to obtain plasma) and used for concentration determination by high-performance liquid chromatography-tandem mass spectrometry (LC-MS/MS). All animals were sacrificed after the PK samples were collected at the last time point. The plasma concentration was processed using a non-compartmental model of Phoenix WinNonlin™ version 8.3 (Certara) pharmacokinetic software, and the pharmacokinetic parameters were calculated using a linear-log trapezoidal method.

[2] = 2 mg/kg, 2 mpk, plasma, read-out: AUClast
[3] = 2 mg/kg, 2 mpk, plasma, read-out: Cmax
[4] = 2 mg/kg, 2 mpk, whole blood, read-out: Whole blood AUClast
[5] = 2 mg/kg, 2 mpk, whole blood, read-out: Whole blood Cmax
[6] = 2 mg/kg, 2 mpk, read-out: Whole blood AUClast/plasma AUClast ratio
[7] = 2 mg/kg, 2 mpk, read-out: Whole blood Cmax/plasma Cmax ratio

NS(=O)(=O)OC[C@H]1[C@H](F)[C@@H](Nc2ncncc2C(=O)c2cc3c(s2)CCC[C@]32NCCc3ccc(Cl)cc32)C[C@@H]1O [Compound 90]
IC50 (SAE; numeric values): 21.1 nM
Plasma AUClast ([1]; 2 mpk): 615 ng·h/mL
C0 ([1]; 2 mg/kg, 2 mpk, plasma): 431 ng/mL
clearance ([1]; 2 mg/kg, 2 mpk, plasma): 53.1 mL/min/kg
half-life ([1]; 2 mg/kg, 2 mpk, plasma): 4.73 h
AUC(0-t) [1, 2]: 615 ng·h/mL
Cmax [1, 3]: 331 ng/mL
Vd ([1]; 2 mg/kg, 2 mpk, plasma): 12.7 L/kg
AUC(0-t) [1, 4]: 46600 ng·h/mL
Cmax [1, 5]: 13400 ng/mL
blood plasma ratio [1, 6]: 75.7
blood plasma ratio [1, 7]: 40.5

NS(=O)(=O)OC[C@H]1[C@H](F)[C@@H](Nc2ncncc2C(=O)c2cc3c(s2)CCC[C@]32NCCc3ccc(F)cc32)C[C@@H]1O [Compound 93]
IC50 (SAE; numeric values): 32.1 nM
Plasma AUClast ([1]; 2 mpk): 448 ng·h/mL
C0 ([1]; 2 mg/kg, 2 mpk, plasma): 406 ng/mL
clearance ([1]; 2 mg/kg, 2 mpk, plasma): 71.1 mL/min/kg
half-life ([1]; 2 mg/kg, 2 mpk, plasma): 1.88 h
AUC(0-t) [1, 2]: 448 ng·h/mL
Cmax [1, 3]: 281 ng/mL
Vd ([1]; 2 mg/kg, 2 mpk, plasma): 9.18 L/kg
AUC(0-t) [1, 4]: 25100 ng·h/mL
Cmax [1, 5]: 13300 ng/mL
blood plasma ratio [1, 6]: 56
blood plasma ratio [1, 7]: 47.4

NS(=O)(=O)OC[C@H]1[C@H](F)[C@@H](Nc2ncncc2C(=O)c2cc3c(s2)CC[C@]32NCCc3ccc(Cl)cc32)C[C@@H]1O [Compound 132]
IC50 (SAE; numeric values): 40.6 nM
Plasma AUClast ([1]; 2 mpk): 602 ng·h/mL
C0 ([1]; 2 mg/kg, 2 mpk, plasma): 803 ng/mL
clearance ([1]; 2 mg/kg, 2 mpk, plasma): 27.5 mL/min/kg
half-life ([1]; 2 mg/kg, 2 mpk, plasma): 3.48 h
AUC(0-t) [1, 2]: 602 ng·h/mL
Cmax [1, 3]: 438 ng/mL
Vd ([1]; 2 mg/kg, 2 mpk, plasma): 5.45 L/kg
AUC(0-t) [1, 4]: 38200 ng·h/mL
Cmax [1, 5]: 9270 ng/mL
blood plasma ratio [1, 6]: 63.4
blood plasma ratio [1, 7]: 21.1

Cc1sc(C(=O)c2cncnc2N[C@H]2C[C@H](O)[C@@H](COS(N)(=O)=O)[C@@H]2F)cc1[C@@H]1NCCc2ccc(Cl)cc21 [Compound 233]
IC50 (SAE; numeric values): 42.6 nM
Plasma AUClast ([1]; 1 mpk): 132 ng·h/mL
C0 ([1]; 1 mg/kg, 1 mpk, plasma): 77 ng/mL
clearance ([1]; 1 mg/kg, 1 mpk, plasma): 103 mL/min/kg
half-life ([1]; 1 mg/kg, 1 mpk, plasma): 3.63 h
AUC(0-t) ([1]; 1 mg/kg, 1 mpk, plasma, read-out: AUClast): 132 ng·h/mL
Cmax ([1]; 1 mg/kg, 1 mpk, plasma, read-out: Cmax): 58 ng/mL
Vd ([1]; 1 mg/kg, 1 mpk, plasma): 27.6 L/kg
AUC(0-t) ([1]; 1 mg/kg, 1 mpk, whole blood, read-out: Whole blood AUClast): 30100 ng·h/mL
Cmax ([1]; 1 mg/kg, 1 mpk, whole blood, read-out: Whole blood Cmax): 4430 ng/mL
blood plasma ratio ([1]; 1 mg/kg, 1 mpk, read-out: Whole blood AUClast/plasma AUClast ratio): 228
blood plasma ratio ([1]; 1 mg/kg, 1 mpk, read-out: Whole blood Cmax/plasma Cmax ratio): 76.3

NS(=O)(=O)OC[C@H]1[C@H](F)[C@@H](Nc2ncncc2C(=O)c2cc3c(s2)C=C[C@]32NCCc3ccc(Cl)cc32)C[C@@H]1O [Compound 344]
IC50 (SAE; numeric values): 20.7 nM
Plasma AUClast ([1]; 2 mpk): 345 ng·h/mL
C0 ([1]; 2 mg/kg, 2 mpk, plasma): 249 ng/mL
clearance ([1]; 2 mg/kg, 2 mpk, plasma): 94.9 mL/min/kg
half-life ([1]; 2 mg/kg, 2 mpk, plasma): 1.48 h
AUC(0-t) [1, 2]: 345 ng·h/mL
Cmax [1, 3]: 299 ng/mL
Vd ([1]; 2 mg/kg, 2 mpk, plasma): 8.65 L/kg
AUC(0-t) [1, 4]: 17000 ng·h/mL
Cmax [1, 5]: 7780 ng/mL
blood plasma ratio [1, 6]: 49.2
blood plasma ratio [1, 7]: 26

CC1(C)CNC2(CCCc3sc(C(=O)c4cncnc4N[C@H]4C[C@H](O)[C@@H](COS(N)(=O)=O)[C@@H]4F)cc32)c2cc(Cl)ccc21 (stereo partly drawn) [Compound 1026]
IC50 (SAE; class symbols): 50 to 200 nM

CC1(C)CN[C@@]2(CCCc3sc(C(=O)c4cncnc4N[C@H]4C[C@H](O)[C@@H](COS(N)(=O)=O)[C@@H]4F)cc32)c2cc(Cl)ccc21 [Compound 1027]
IC50 (SAE; class symbols): > 200 nM

CC1(C)CN[C@]2(CCCc3sc(C(=O)c4cncnc4N[C@H]4C[C@H](O)[C@@H](COS(N)(=O)=O)[C@@H]4F)cc32)c2cc(Cl)ccc21 [Compound 1028]
IC50 (SAE; class symbols): 50 to 200 nM

CC1(C)Cc2ccc(Cl)cc2C2(CCCc3sc(C(=O)c4cncnc4N[C@H]4C[C@H](O)[C@@H](COS(N)(=O)=O)[C@@H]4F)cc32)N1 (stereo partly drawn) [Compound 1029]
IC50 (SAE; class symbols): 50 to 200 nM

CC1(C)Cc2ccc(Cl)cc2[C@]2(CCCc3sc(C(=O)c4cncnc4N[C@H]4C[C@H](O)[C@@H](COS(N)(=O)=O)[C@@H]4F)cc32)N1 [Compound 1030]
IC50 (SAE; class symbols): > 200 nM

CC1(C)Cc2ccc(Cl)cc2[C@@]2(CCCc3sc(C(=O)c4cncnc4N[C@H]4C[C@H](O)[C@@H](COS(N)(=O)=O)[C@@H]4F)cc32)N1 [Compound 1031]
IC50 (SAE; class symbols): 50 to 200 nM

CC1CNC2(C=Cc3sc(C(=O)c4cncnc4N[C@H]4C[C@H](O)[C@@H](COS(N)(=O)=O)[C@@H]4F)cc32)c2cc(Cl)ccc21 (stereo partly drawn) [Compound 1053]
IC50 (SAE; class symbols): 50 to 200 nM

CC1CN[C@@]2(C=Cc3sc(C(=O)c4cncnc4N[C@H]4C[C@H](O)[C@@H](COS(N)(=O)=O)[C@@H]4F)cc32)c2cc(Cl)ccc21 (stereo partly drawn) [Compound 1054]
IC50 (SAE; class symbols): > 200 nM

CC1CN[C@]2(C=Cc3sc(C(=O)c4cncnc4N[C@H]4C[C@H](O)[C@@H](COS(N)(=O)=O)[C@@H]4F)cc32)c2cc(Cl)ccc21 (stereo partly drawn) [Compound 1055]
IC50 (SAE; class symbols): ≤ 50 nM

CC1Cc2ccc(Cl)cc2C2(C=Cc3sc(C(=O)c4cncnc4N[C@H]4C[C@H](O)[C@@H](COS(N)(=O)=O)[C@@H]4F)cc32)N1 (stereo partly drawn) [Compound 1056]
IC50 (SAE; class symbols): 50 to 200 nM

CC1Cc2ccc(Cl)cc2[C@]2(C=Cc3sc(C(=O)c4cncnc4N[C@H]4C[C@H](O)[C@@H](COS(N)(=O)=O)[C@@H]4F)cc32)N1 (stereo partly drawn) [Compound 1057]
IC50 (SAE; class symbols): > 200 nM

CC1Cc2ccc(Cl)cc2[C@@]2(C=Cc3sc(C(=O)c4cncnc4N[C@H]4C[C@H](O)[C@@H](COS(N)(=O)=O)[C@@H]4F)cc32)N1 (stereo partly drawn) [Compound 1058]
IC50 (SAE; class symbols): 50 to 200 nM

CC1(C)CNC2(C=Cc3sc(C(=O)c4cncnc4N[C@H]4C[C@H](O)[C@@H](COS(N)(=O)=O)[C@@H]4F)cc32)c2cc(Cl)ccc21 (stereo partly drawn) [Compound 1059]
IC50 (SAE; class symbols): 50 to 200 nM

CC1(C)CN[C@@]2(C=Cc3sc(C(=O)c4cncnc4N[C@H]4C[C@H](O)[C@@H](COS(N)(=O)=O)[C@@H]4F)cc32)c2cc(Cl)ccc21 [Compound 1060]
IC50 (SAE; class symbols): > 200 nM

CC1(C)CN[C@]2(C=Cc3sc(C(=O)c4cncnc4N[C@H]4C[C@H](O)[C@@H](COS(N)(=O)=O)[C@@H]4F)cc32)c2cc(Cl)ccc21 [Compound 1061]
IC50 (SAE; class symbols): 50 to 200 nM
